Results published in publication PMC8618024 (2021).
Entries after “also recorded” stand apart in the source; their conditions may differ.

How the values were obtained:
MlrA = test: suspension of intact recombinant mlrA-HMBP-pET28a/BL21 in sterile water; conditions: mlrA-HMBP-pET28a/BL21, 37 °C, up to 144 h
[1] = Strain m6 cells in MSM, pH 7, at 40 °C; conditions: Sphingopyxis sp. m6, 40 °C, up to six days
[2] = natural microbial communities in sediments; conditions: cited from earlier work
[3] = CEs from HMBP-pET28a/BL21 (negative control) in sterile water; conditions: HMBP-pET28a/BL21, 37 °C, up to 12 h
[4] = Sphingomonas sp. B-9 cells; conditions: cited from earlier work
[5] = suspension of HMBP-pET28a/BL21 (negative control) in sterile water; conditions: HMBP-pET28a/BL21, 37 °C, up to 144 h
recombinant MlrA = test: CEs (cell-free extracts) of recombinant mlrA-HMBP-pET28a/BL21 in sterile water; conditions: mlrA-HMBP-pET28a/BL21, 37 °C, up to 48 h
[6] = Strain m6 cells resuspended in sterile MSM (mineral salt medium); conditions: Sphingopyxis sp. m6, 30 °C, up to six days

cleaved bond (MlrA): Arg-Adda, first_seen
not cleaved [3]: remaining essentially unchanged
not cleaved [5]: remaining essentially unchanged
cleaved bond (recombinant MlrA): Arg-Adda, first_seen
Substance: D-MeAsp, L-Arg, Adda, D-Glu, and Mdhb
not cleaved [1]: the toxin concentration barely decreased
fragment found [2]: linear NOD and Adda and H-Glu-Mdhb-MeAsp-Arg-OH and H-Adda-Glu-Mdhb-MeAsp-OH and H-Adda-Glu-Mdhb-MeAsp-Cit-OH
fragment found [4]: linear NOD and Adda
cleaved bond [6]: Arg-Adda, first_seen; also recorded: Adda-Glu; also recorded: Glu-Mdhb; also recorded: Mdhb-MeAsp
